Measured values: patent publication US10668040B2, “Treatment of urea cycle disorders in neonates and infants” (Horizon Therapeutics, LLC, priority 2017, dated 2020)

Experiments:
[1] = tested on: UCD patients; assay: Example 3: BMI and BSA Z-scores up to Month 24; assay type: in vivo, human; settings: Age 2 months to <2 years
Method: Baseline and Change from Baseline in Body Mass Index (BMI) Z-Score Up to Month 24
(§1) To assess any effect of study drug treatment on growth, Z-scores were calculated to express the deviation from a reference population for BMI. The Z-scores are based on the World Health Organization's Child Growth Standards charts. Negative Z-scores indicate lower than typical for age and gender while positive scores indicate higher than typical for age and gender. BMI measurements were taken on month 1, month 2, month 3, month 4, month 5, month 6, month 9, month 12, month 15, month 18, and month 24.
Baseline and Change from Baseline in Body Surface Area (BSA) Z-Score Up to Month 24
as §1, with “BSA.” for “BMI.”, “weight-for-length” for “the World Health Organization's Child Growth Standards”

[2] = Example 3: urinary PAGN concentrations (first full day and up to end of trial); assay type: in vivo, human
Method: Urinary PAGN Concentrations on the First Full Day of RAVICTI Dosing
PK Evaluable Population: all subjects from the safety population with individual concentration-time profiles that allow computation of meaningful PK parameter values. Measurements were taken at hour 0, between 0.5 and 1.5 hours, between 1.5 and 2.5 hours, between 4 and 6 hours, between 7.5 and 8.5 hours, and between 12 and 24 hours after the first dose of the day on day 1 for stable subjects and on day 2 for subjects in HAC.
Urinary PAGN Concentrations Up to End of Trial
PK Evaluable Population: all subjects from the safety population with individual concentration-time profiles that allow computation of meaningful PK parameter values. Measurements were taken at day 7, month 1, month 2, month 3, month 4, month 5, month 6, month 9, month 12, month 15, month 18, month 24, and at the end of the trial.

[3] = tested on: UCD patients; settings: 4 patients aged 2 months to 2 years; cited from earlier work

## O=C(CCCc1ccccc1)OCC(COC(=O)CCCc1ccccc1)OC(=O)CCCc1ccccc1 [RAVICTI, benzenebutanoic acid, 1′,1″-(1,2,3-propanetriyl) ester]
[1]; Month 5
  BSA Z-Score change from baseline: 0.1043 (±0.5675);
[1]; Month 6
  BMI Z-Score change from baseline: 0.2497 (±0.8092);
  BSA Z-Score change from baseline: 0.1842 (±0.622);
[1]; Month 9
  BMI Z-Score change from baseline: 0.6407 (±0.9869);
  BSA Z-Score change from baseline: 0.4875 (±0.8614);
[1]; Month 12
  BMI Z-Score change from baseline: 0.4164 (±0.8067);
  BSA Z-Score change from baseline: 0.2944 (±0.7513);
[1]; Month 15
  BMI Z-Score change from baseline: −0.2997 (±0.1696);
  BSA Z-Score change from baseline: −0.3661 (±0.00932);
[1]; Month 18
  BMI Z-Score change from baseline: −0.2038 (±00000);
  BSA Z-Score change from baseline: −0.2214 (±00000);
[1]; Month 24
  BMI Z-Score change from baseline: 0.5581 (±1.24);
  BSA Z-Score change from baseline: 0.4310 (±1.131);
[2]; Age 0 to <2 months, Day 7
  Urinary PAGN concentration: 4643 (±2506); μg/mL
[2]; Age 0 to <2 months, End of trial
  Urinary PAGN concentration: 6939 (±6581); μg/mL
[2]; Age 0 to <2 months, Month 1
  Urinary PAGN concentration: 4517 (±2485), μg/mL
[2]; Age 0 to <2 months, Month 2
  Urinary PAGN concentration: 4116 (±3137); μg/mL
[2]; Age 0 to <2 months, Month 3
  Urinary PAGN concentration: 7037 (±4493); μg/mL
[2]; Age 0 to <2 months, Month 4
  Urinary PAGN concentration: 2826 (±1543); μg/mL
[2]; Age 0 to <2 months, Month 5
  Urinary PAGN concentration: 6973 (±3682); μg/mL
[2]; Age 0 to <2 months, Month 6
  Urinary PAGN concentration: 5883 (±3128); μg/mL
[2]; Age 0 to <2 months, Month 9
  Urinary PAGN concentration: 7006 (±4289); μg/mL
[2]; Age 0 to <2 months, Month 12
  Urinary PAGN concentration: 5847 (±2992); μg/mL
[2]; Age 0 to <2 months, Month 15
  Urinary PAGN concentration: 3915 (±2584); μg/mL
[2]; Age 0 to <2 months, first full day, 0.5 to 1.5 hours
  Urinary PAGN concentration: 1828 (±2862); μg/mL
[2]; Age 0 to <2 months, first full day, 1.5 to 2.5 hours
  Urinary PAGN concentration: 1746 (±1464); μg/mL
[2]; Age 0 to <2 months, first full day, 4 to 6 hours
  Urinary PAGN concentration: 2260 (±1472); μg/mL
[2]; Age 0 to <2 months, first full day, 7.5 to 8.5 hours
  Urinary PAGN concentration: 3530.43 (±3600.4), μg/mL
[2]; Age 0 to <2 months, first full day, 12 to 24 hours
  Urinary PAGN concentration: 4404 (±3766); μg/mL
[2]; Age 0 to <2 months, first full day, Hour 0
  Urinary PAGN concentration: 3530.43 (±3600.4); μg/mL
[2]; Age 2 months to <2 years, Day 7
  Urinary PAGN concentration: 8859 (±10500); μg/mL
[2]; Age 2 months to <2 years, End of trial
  Urinary PAGN concentration: 25333 (±21324); μg/mL
[2]; Age 2 months to <2 years, Month 1
  Urinary PAGN concentration: 6274 (±4802); μg/mL
[2]; Age 2 months to <2 years, Month 2
  Urinary PAGN concentration: 7386 (±6419); μg/mL
[2]; Age 2 months to <2 years, Month 3
  Urinary PAGN concentration: 11456 (±14471); μg/mL
[2]; Age 2 months to <2 years, Month 4
  Urinary PAGN concentration: 21416 (±33695); μg/mL
[2]; Age 2 months to <2 years, Month 5
  Urinary PAGN concentration: 6129 (±8024); μg/mL
[2]; Age 2 months to <2 years, Month 6
  Urinary PAGN concentration: 5347 (±3153); μg/mL
[2]; Age 2 months to <2 years, Month 9
  Urinary PAGN concentration: 9357 (±7286); μg/mL
[2]; Age 2 months to <2 years, Month 12
  Urinary PAGN concentration: 2580 (±286); μg/mL
[2]; Age 2 months to <2 years, Month 15
  Urinary PAGN concentration: 6400 (±00000); μg/mL
[2]; Age 2 months to <2 years, Month 18
  Urinary PAGN concentration: 5250 (±00000); μg/mL
[2]; Age 2 months to <2 years, first full day, 0.5 to 1.5 hours
  Urinary PAGN concentration: 4140 (±4399); μg/mL
[2]; Age 2 months to <2 years, first full day, 1.5 to 2.5 hours
  Urinary PAGN concentration: 3145 (±5045); μg/mL
[2]; Age 2 months to <2 years, first full day, 4 to 6 hours
  Urinary PAGN concentration: 5202 (±4547); μg/mL
[2]; Age 2 months to <2 years, first full day, 7.5 to 8.5 hours
  Urinary PAGN concentration: 3950 (±3068); μg/mL
[2]; Age 2 months to <2 years, first full day, 12 to 24 hours
  Urinary PAGN concentration: 7561 (±6956); μg/mL
[2]; Age 2 months to <2 years, first full day, Hour 0
  Urinary PAGN concentration: 3273 (±1993); μg/mL
[3]
  PAA exposure, 24-hour area under the curve, vs NaPBA: very similar
  mean ammonia exposure, 24-hour area under the curve, vs NaPBA: non-inferior
